{"source": "patent US9661854B2", "about": "“Molecules having pesticidal utility, and intermediates, compositions, and processes, related thereto” (Dow AgroSciences LLC, priority 2015, dated 2017)", "format_in_all_cases": "in vivo", "key": {"[1]": {"test_system": "Beet Armyworm (Spodoptera exigua, LAPHEG)", "test": "Bioassay on Beet Armyworm (BAW), 128-well diet tray assay", "conditions": "168 h, 50 μg/cm^2 on artificial diet, second instar larvae, 25° C., five to seven days, average of eight wells, read-out: BAW % Control (or Mortality) rating", "method_in_brief": "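Second-instar larvae, one to five per well, fed artificial diet surface-treated with 50 μg/cm^2 test molecule in 90:10 acetone-water, dried before infestation; eight wells per molecule. Held at 25 °C, 14:10 light-dark for five to seven days; percent mortality averaged over wells.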"}, "[2]": {"test_system": "Yellow Fever Mosquito (Aedes aegypti, AEDSAE)", "conditions": "about 1 day-old larvae, master plate 4000 ppm solution diluted, room temperature, scored after 3 days", "description": "Example B: Bioassays on Yellow Fever Mosquito (Aedes aegypti, AEDSAE (“YFM”)\nCertain molecules disclosed in this document were tested against YFM using procedures described in the following paragraph. In the reporting of the results, the “YFM Rating Table” was used (See Table Section).\nMaster plates containing 400 μg of a molecule dissolved in 100 μL of dimethyl sulfoxide (DMSO) (equivalent to a 4000 ppm solution) are used. A master plate of assembled molecules contains 15 μL per well. To this plate, 135 μL of a 90:10 water/acetone mixture is added to each well. A robot (Biomek® NXP Laboratory Automation Workstation) is programmed to dispense 15 μL aspirations from the master plate into an empty 96-well shallow plate (“daughter” plate). There are 6 reps (“daughter” plates) created per master. The created “daughter” plates are then immediately infested with YFM larvae.\nThe day before plates are to be treated, mosquito eggs are placed in Millipore water containing liver powder to begin hatching (4 g into 400 mL). After the “daughter” plates are created using the robot, they are infested with 220 μL of the liver powder/larval mosquito mixture (about 1 day-old larvae). After plates are infested with mosquito larvae, a non-evaporative lid is used to cover the plate to reduce drying. Plates are held at room temperature for 3 days prior to grading. After 3 days, each well is observed and scored based on mortality. The results are indicated in the table entitled “Table ABC: Biological Results” (See Table Section)."}, "[3]": {"test_system": "Cabbage Looper (Trichoplusia ni, TRIPNI)", "test": "Bioassay on Cabbage Looper (CL), 128-well diet tray assay", "conditions": "168 h, 50 μg/cm^2 on artificial diet, second instar larvae, 25° C., five to seven days, average of eight wells, read-out: CL % Control (or Mortality) rating", "method_in_brief": "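Second-instar larvae (one to five per well) placed on artificial diet treated with 50 μg/cm^2 test molecule in 90:10 acetone-water, dried; eight wells per molecule. Held at 25° C., 14:10 light-dark, for five to seven days. Percent mortality scored per well and averaged over the eight wells.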"}}}
{"smiles": "Cc1ccc(C(C)C)c(N2C(=O)CS/C2=N\\C(=O)Nc2ccc(/C=C/c3ncn(-c4ccc(OC(F)(F)F)cc4)n3)cc2)c1", "note": "[F38, 1-((Z)-3-(2-isopropyl-5-methylphenyl)-4-oxothiazolidin-2-ylidene)-3-(4-((E)-2-(1-(4-(trifluoromethoxy)phenyl)-1H-1,2,4-triazol-3-yl)vinyl)phenyl)urea]", "values": [{"measurement": "mortality at 50 µg/cm2", "setting": "[1]", "result": "50 to 100", "unit": "%"}, {"measurement": "YFM % Control (or Mortality) rating", "setting": "[2]", "result": "A (80-100)"}, {"measurement": "mortality at 50 µg/cm2", "setting": "[3]", "result": "50 to 100", "unit": "%"}]}
{"smiles": "CCC(C)Oc1ccc(C)cc1N1C(=O)CS/C1=N\\C(=O)Nc1ccc(/C=C/c2ncn(-c3ccc(OC(F)(F)F)cc3)n2)cc1F", "note": "(stereo not drawn) [F60, 1-((Z)-3-(2-(sec-Butoxy)-5-methylphenyl)-4-oxothiazolidin-2-ylidene)-3-(2-fluoro-4-((E)-2-(1-(4-(trifluoromethoxy)phenyl)-1H-1,2,4-triazol-3-yl)vinyl)phenyl)urea]", "values": [{"measurement": "mortality at 50 µg/cm2", "setting": "[1]", "result": "50 to 100", "unit": "%"}, {"measurement": "YFM % Control (or Mortality) rating", "setting": "[2]", "result": "A (80-100)"}, {"measurement": "mortality at 50 µg/cm2", "setting": "[3]", "result": "50 to 100", "unit": "%"}]}
{"smiles": "CC(C)c1ccccc1N1C(=O)CS/C1=N\\C(=O)Nc1ccc(CCc2ncn(-c3ccc(C(F)(F)F)cc3C#N)n2)cc1", "note": "[F76, (Z)-1-(4-(2-(1-(2-cyano-4-(trifluoromethyl)phenyl)-1H-1,2,4-triazol-3-yl)ethyl)phenyl)-3-(3-(2-isopropylphenyl)-4-oxothiazolidin-2-ylidene)urea]", "values": [{"measurement": "mortality at 50 µg/cm2", "setting": "[1]", "result": "50 to 100", "unit": "%"}, {"measurement": "YFM % Control (or Mortality) rating", "setting": "[2]", "result": "A (80-100)"}, {"measurement": "mortality at 50 µg/cm2", "setting": "[3]", "result": "50 to 100", "unit": "%"}]}
{"smiles": "CC(C)c1ccccc1N1C(=O)CS/C1=N\\C(=O)Nc1ccc(CCc2ncn(-c3ccc(Br)cc3)n2)cc1", "note": "[F77, (Z)-1-(4-(2-(1-(4-Bromophenyl)-1H-1,2,4-triazol-3-yl)ethyl)phenyl)-3-(3-(2-isopropylphenyl)-4-oxothiazolidin-2-ylidene)urea]", "values": [{"measurement": "mortality at 50 µg/cm2", "setting": "[1]", "result": "50 to 100", "unit": "%"}, {"measurement": "YFM % Control (or Mortality) rating", "setting": "[2]", "result": "A (80-100)"}, {"measurement": "mortality at 50 µg/cm2", "setting": "[3]", "result": "50 to 100", "unit": "%"}]}
